Experimental data published in US7132296B2, “Method for assaying the antioxidant capacity of a sample” (Medical Products Manufacturing, LLC, priority 2002, dated 2006).

What was measured:
[1] = ORAC assay with fluorescein probe (ORACFL), peroxyl radical scavenging assay; format: biochemical; details: for Ratio (ORACFL/ORACB-PE): chemicals, Table 1; for ORACFL: fluorescein probe, calculated based on equation 2, n > 3
Procedure: (§1) In accordance with the subject invention the area under the curve (AUC) for the sample, standard, and blank are calculated as: AUC=0.5+f1/f0+f2/f0+f3/f0+f4/f0+ . . . +fi/f0 (1) Where f0=initial fluorescence reading at 0 minute, and fi is the fluorescence reading at time i. Typically, equation (1) is solved and the data analyzed in an electronic spreadsheet such as Microsoft Excel or other similar products or computer programs. The AUC is calculated for sample 60, standard 62 and blank 64. The net AUC is obtained by subtracting the AUC of blank 64 from sample 60. The relative ORAC value for sample 60, expressed in Trolox equivalents is calculated as: Relative ORAC value=[(AUCsample−AUCBlank)/(AUCTrolox−AUCBlank)]×(molarity of Trolox/molarity of sample) (2)
Flavonoid compounds and β-phycoerythrin were purchased from Sigma (St. Louis, Mo.). Trolox, ascorbic acid and disodium fluorescein were obtained from Aldrich (Milwaukee, Wis.). 2,2′-azobis (2-amidino-propane) dihydrochloride (AAPH) was purchased from Wako Chemicals USA (Richmond, Va.). Various analyzed samples were also obtained. ORAC analyses were performed on a COBAS FARA II analyzer (Roche Diagnostic System Inc., Branchburg, N.J.; Excitation wavelength=493 nm and emission filter=515 nm).
Ascorbic acid and flavonoids were directly dissolved in acetone/water mixture (50:50, v/v) and diluted with pH 7.4 phosphate buffer for analysis. The solid samples were initially ground in a mechanical mill to produce a fine power; then 0.5 grams were accurately weighed and 20 mL of acetone/water (50:50, v/v) extraction solvent was added. The mixture was shaken at 400 RPM at room temperature on an orbital shaker for one hour. The extracts were centrifuged at 14000 rpm for 15 min, and the supernatant was ready for analysis after appropriate dilution with buffer solution. For liquid samples, a 20 mL aliquot of sample was centrifuged for 15 min and the supernatant was ready for analysis after appropriate dilution. Blood plasma or serum was diluted 100 to 200 fold with pH 7.4 phosphate buffer before analysis. To measure the ORAC in non-protein fraction, protein was removed using 0.5 N perchloric acid (1:1; v:v; plasma:acid), the samples were then centrifuged at 140,000×g for 10 min at 4° C., and the supernatants were removed as the serum nonprotein fractions and appropriately diluted with pH 7.4 phosphate buffer before the analysis.
Peroxyl radical scavenging assay. The COBAS FARA II was programmed to use a two-reagent system (Reaction Mode 3, P-I-SRI-A). The reaction mode pipetted and transferred the sample (20 μL), phosphate buffer (5 μL, 0.75 mM, pH 7.4), and main reagent (365 μL FL, 4.8×10^−8 M) into the main reagent wells of their respective cuvette rotor positions. With spinning of the rotor, the reagents are mixed and incubated for 30 s before recording the initial fluorescence (f0). After the rotor stops spinning, a start reagent (SRI), 8 μL of APPH (0.64M) plus 2 μL of the phosphate buffer is pipetted into the appropriate start reagent well in the curvette rotor. Next, the analyzer starts spinning, mixing of the sample/FL with AAPH reagent and the oxidative reaction starts. […] Between transfers, both sample and reagent transfer pipettes are washed with clean solution to eliminate sample cross contamination. Fluorescence readings are taken at 0.5 s and then every minute thereafter (f1, f2, f3 . . . ) for a duration of 30 min. If the fluorescence of the final reading has not declined by >95% from the first reading, the dilution of sample is adjusted accordingly and the sample is reanalyzed. To determine the maximum voltage for the photomultiplier tube, the AAPH reagent is omitted and is replaced with buffer, and the analysis is run for 10 min. FL and AAPH were prepared in a 0.75 mM phosphate buffer. FL working solution was routinely preincubated in a waterbath at 37° C. for 15 min before loading into the COBAS reagent rack.

[2] = ORAC assay with B-phycoerythrin probe (ORACB-PE / ORACPE); format: biochemical; details: calculated based on equation 2, n > 3
Procedure: In accordance with the published ORAC assay, a sample such as fresh fruit, blood senun, or an additive or supplement in powder form is prepared for extraction and extracted first in water and then in acetone. A protein based fluorescent probe, namely B-phycoerythrin (B-PE) is then added to the extract. A standard, having high antioxidant capacity, such as diluted grape seed extract (GSE) or TROLOX® (6-hydroxy-2,5,7,8-tetramethylchroman-2-carboxylic acid), a water soluble analog of vitamin E, is added to the extract to provide a comparison of the antioxidant capacity of the sample to the standard. The extract, the standard, and a blank sample are then loaded into the COBAS FARA II device and an initial fluorescence emission of the probe is taken. Next, AAPH, (2,2′-azobis (2-amidino-propane) dihydrochloride), which generates free radicals upon heating, is added to the extract of the sample and the standard and fluorescence emission readings are taken until a zero value is reached for the extract of the sample. To measure the protective effect of an antioxidant using the ORAC assay, the area under the fluorescence decay curve (AUC) of the sample is calculated and compared to that of the blank in which no antioxidant is present.
After the fluorescent readings are taken, the ORAC values are calculated by using a regression equation between standard concentration 62, FIG. 7, and the net area under the B-PE decay curve of sample 60. ORAC values are typically expressed in μmole Trolox equivalent per liter or per gram.
as §1

With `O=C(O)/C=C/c1ccc(O)c(O)c1` [Caffeic Acid] the “Ratio (ORACFL/ORACB-PE)” value [1] was 3.12, the ORACFL [1] was 4.37 ± 0.24 relative Trolox equivalent and the ORACB-PE [2] was 1.40 ± 0.09 relative Trolox equivalent.
In the case of `O=c1c(-c2ccc(O)cc2)coc2cc(O)cc(O)c12` [Genistein], the “Ratio (ORACFL/ORACB-PE)” value [1] is reported as 2.57, the ORACFL [1] is reported as 5.93 ± 0.45 relative Trolox equivalent and the ORACB-PE [2] is reported as 2.3 ± 0.16 relative Trolox equivalent.
In the case of `N[C@@H](CCC(=O)N[C@@H](CS)C(=O)NCC(=O)O)C(=O)O` [Glutathione], the “Ratio (ORACFL/ORACB-PE)” value [1] is reported as 1.94, the ORACFL [1] is reported as 0.62 ± 0.02 relative Trolox equivalent and the ORACB-PE [2] is reported as 0.32 ± 0.01 relative Trolox equivalent.
For `O=c1c(O)c(-c2ccc(O)c(O)c2)oc2cc(O)cc(O)c12` [Quercetin], the “Ratio (ORACFL/ORACB-PE)” value [1] was 2.11, the ORACFL [1] was 4.38 ± 0.22 relative Trolox equivalent and the ORACB-PE [2] was 2.07 ± 0.05 relative Trolox equivalent.
For `C[C@@H]1O[C@@H](Oc2c(-c3ccc(O)c(O)c3)oc3cc(O)cc(O)c3c2=O)[C@H](O)[C@H](O)[C@H]1O` [Quercetrin], the “Ratio (ORACFL/ORACB-PE)” value [1] was 2.15, the ORACFL [1] was 5.87 ± 0.49 relative Trolox equivalent and the ORACB-PE [2] was 2.70 ± 0.18 relative Trolox equivalent.
With `O=C1O[C@H]([C@@H](O)CO)C(O)=C1O` [Vitamin C] the “Ratio (ORACFL/ORACB-PE)” value [1] was 2.21, the ORACFL [1] was 0.95 ± 0.02 relative Trolox equivalent and the ORACB-PE [2] was 0.43 ± 0.03 relative Trolox equivalent.
